Data taken from patent US11759462B2, “Spirocyclic compounds as tryptophan hydroxylase inhibitors” (priority 2013, dated 2023).
Where two headings read alike, the source gives them in different places.

Key:
[1] = biological target: T1, Recombinant human TPH1 (MBP tagged) (Homo sapiens, UniProt P17752); experiment: TPH1 in vitro inhibition assay (kinetic fluorescence); assay type: biochemical
T1 construct: cloning full length human TPH1 cDNA in to a bacterial pMAL-c5E expression vector; made in house; host or cells: E. coli BL21 (DE3)
T1 sequence (P17752 1-444): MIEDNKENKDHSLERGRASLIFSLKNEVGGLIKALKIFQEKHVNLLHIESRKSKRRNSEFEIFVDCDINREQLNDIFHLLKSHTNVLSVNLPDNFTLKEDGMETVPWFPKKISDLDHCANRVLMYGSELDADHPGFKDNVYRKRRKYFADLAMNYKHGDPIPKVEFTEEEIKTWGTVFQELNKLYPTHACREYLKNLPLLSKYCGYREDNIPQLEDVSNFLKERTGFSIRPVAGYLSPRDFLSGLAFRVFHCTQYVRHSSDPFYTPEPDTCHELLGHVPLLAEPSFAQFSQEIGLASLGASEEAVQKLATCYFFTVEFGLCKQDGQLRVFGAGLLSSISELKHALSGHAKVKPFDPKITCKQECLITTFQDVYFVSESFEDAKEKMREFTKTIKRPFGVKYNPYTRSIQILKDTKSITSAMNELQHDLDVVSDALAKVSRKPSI
How it was run: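 Final mix: 15 nM MBP-TPH1, 30 μM Trp, 36 μM 6-methyltetrahydropterin, 25 μM ferrous ammonium sulfate, 50 mM MES pH 7.1, 1% DMSO, room temperature.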

[2] = system: jejunal mucosal 5-HT in mice (C57 BL6); experiment: Reduction of mucosal 5-HT concentrations (Example C, repeated oral dosing); assay type: in vivo, mouse; conditions: P-value class
Method: The efficacy of the TPH1 inhibitors of the invention was assessed for the ability to decrease intestinal serotonin concentration in mice. Mice (C57 BL6) were administered an oral dose of 10 or 50 mg/kg of the test article in the evening. […] Following an overnight fast, each animal was euthanized by exsanguination under isoflurane anesthesia. Jejunal intestinal mucosa was isolated and homogenized in […] of a buffer containing 0.3M trichloroacetic acid, 0.1M sodium acetate, 10 mM EDTA, 20 mM sodium bisulfate and 50 mM ascorbic acid. Following centrifugation the 5-HT levels in the supernatants were measured by HPLC. The remaining mucosal pellet was solubilized overnight at 37° C. in a 0.1% sodium dodecyl sulfate buffer in 0.1N NaOH followed by determination of protein concentrations using a BCA protein assay (Pierce, Rockford, Ill.). 5-HT levels were normalized to protein and data were expressed as mean percent reduction of mucosal 5-HT levels relative to vehicle control±SEM (percent 5-HT reduction). All animal studies were carried out with protocols approved by the Institutional Animal Care and Use Committee. P-values, indicating statistical significance of the data (ANOVA) are provided in the table: * refers to P<0.05,** refers to P<0.01, *** refers to P<0.005, and **** refers to P<0.0005.

[3] = system: jejunal mucosal 5-HT in mice (C57 BL6); experiment: Intestinal 5-HT depletion assay (Example B, single 150 mg/kg oral dose); assay type: in vivo, mouse; conditions: one day after oral administration of a single 150 mg/kg dose, P-value class (ANOVA)
How it was run: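 C57 BL6 mice received one 150 mg/kg oral gavage dose; jejunal mucosa was homogenized in acidic trichloroacetic acid buffer and 5-HT measured by HPLC. Levels normalized to BCA protein, expressed as mean percent reduction versus vehicle ± SEM; ANOVA significance.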

[4] = read-out: TPH1 Range (TPH1 inhibition IC50)
[5] = after three oral doses (first 10 or 50 mg/kg, then two doses of 50 mg/kg) (title)

SMILES | IC50 [1, 4] [nM] | Efficacy (statistical significance of reduction of mucosal 5-HT concentrations relative to vehicle) [2, 5] | Efficacy (statistical significance of reduction of mucosal 5-HT concentrations relative to vehicle) [3] | IC50 ([1]; TPH1 Range (TPH1 inhibition IC50)) [nM] | Efficacy (statistical significance of reduction of mucosal 5-HT concentrations relative to vehicle) ([2]; (title))
Cc1ccn(-c2cc(-c3ccc(OC(C)C)cc3)ccc2[C@@H](Oc2cc(N3CCC4(CC3)CN[C@H](C(=O)O)C4)nc(N)n2)C(F)(F)F)n1 [Example 1l, (S)-8-(2-amino-6-((R)-2,2,2-trifluoro-1-(4′-isopropoxy-3-(3-methyl-1H-pyrazol-1-yl)-[1,1′-biphenyl]-4-yl)ethoxy)pyrimidin-4-yl)-2,8-diazaspiro[4.5]decane-3-carboxylic acid] | < 50 | *** (*** refers to P<0.005) | **** (and refers to P<0.0005) |  | 
Cc1ccn(-c2cc(-c3ccc(C)c(C)c3)ccc2[C@@H](Oc2cc(N3CCC4(CC3)CN[C@H](C(=O)O)C4)nc(N)n2)C(F)(F)F)n1 [Example 1m, (S)-8-(2-amino-6-((R)-1-(3′,4′-dimethyl-3-(3-methyl-1H-pyrazol-1-yl)-[1,1′-biphenyl]-4-yl)-2,2,2-trifluoroethoxy)pyrimidin-4-yl)-2,8-diazaspiro[4.5]decane-3-carboxylic acid] |  |  | *** (*** refers to P<0.005) | < 50 | * (* refers to P<0.05)
COc1cc(-c2ccc([C@@H](Oc3cc(N4CCC5(CC4)CN[C@H](C(=O)O)C5)nc(N)n3)C(F)(F)F)c(-n3ccc(C)n3)c2)ccn1 [Example 1n, (S)-8-(2-amino-6-((R)-2,2,2-trifluoro-1-(4-(2-methoxypyridin-4-yl)-2-(3-methyl-1H-pyrazol-1-yl)phenyl)ethoxy)pyrimidin-4-yl)-2,8-diazaspiro[4.5]decane-3-carboxylic acid] | < 50 | *** (*** refers to P<0.005) | ** (** refers to P<0.01) |  | 
CCCCc1ccc([C@@H](Oc2cc(N3CCC4(CC3)CN[C@H](C(=O)O)C4)nc(N)n2)C(F)(F)F)c(-n2ccc(C)n2)c1 [Example 12c, (S)-8-(2-amino-6-((R)-1-(4-butyl-2-(3-methyl-1H-pyrazol-1-yl)phenyl)-2,2,2-trifluoroethoxy)pyrimidin-4-yl)-2,8-diazaspiro[4.5]decane-3-carboxylic acid] | < 50 | *** (*** refers to P<0.005) | *** (*** refers to P<0.005) |  | 
Nc1nc(O[C@H](c2ccc(-c3ccc4ncccc4c3)cc2)C(F)(F)F)cc(N2CCC3(CC2)CN[C@H](C(=O)O)C3)n1 [Example 55bg, (S)-8-(2-amino-6-((R)-2,2,2-trifluoro-1-(4-(quinolin-6-yl)phenyl)ethoxy)pyrimidin-4-yl)-2,8-diazaspiro[4.5]decane-3-carboxylic acid] | < 50 | *** (*** refers to P<0.005) | *** (*** refers to P<0.005) |  | 
CCCCc1ccc([C@@H](Oc2cc(N3CCC4(CC3)CN[C@H](C(=O)OCC)C4)nc(N)n2)C(F)(F)F)c(-n2ccc(C)n2)c1 [Example 63bg, (S)-ethyl 8-(2-amino-6-((R)-1-(4-butyl-2-(3-methyl-1H-pyrazol-1-yl)phenyl)-2,2,2-trifluoroethoxy)pyrimidin-4-yl)-2,8-diazaspiro[4.5]decane-3-carboxylate] |  | *** (*** refers to P<0.005) | **** (and refers to P<0.0005) |  | 
CCOC(=O)[C@@H]1CC2(CCN(c3cc(O[C@H](c4cc(-c5ccc(C)c(C)c5)ccc4-n4ccc(C)n4)C(F)(F)F)nc(N)n3)CC2)CN1 [Example 63bn, (S)-ethyl 8-(2-amino-6-((R)-1-(3′,4′-dimethyl-4-(3-methyl-1H-pyrazol-1-yl)-[1,1′-biphenyl]-3-yl)-2,2,2-trifluoroethoxy)pyrimidin-4-yl)-2,8-diazaspiro[4.5]decane-3-carboxylate] |  | **** (**** refers to P<0.0005) | **** (and refers to P<0.0005) |  | 
CCCc1ccc(-n2ccc(C)n2)c([C@@H](Oc2cc(N3CCC4(CC3)CN[C@H](C(=O)OCC)C4)nc(N)n2)C(F)(F)F)c1 [Example 63bo, (S)-ethyl 8-(2-amino-6-((R)-2,2,2-trifluoro-1-(2-(3-methyl-1H-pyrazol-1-yl)-5-propylphenyl)ethoxy)pyrimidin-4-yl)-2,8-diazaspiro[4.5]decane-3-carboxylate] |  | *** (*** refers to P<0.005) | **** (and refers to P<0.0005) |  | 
CCOC(=O)[C@@H]1CC2(CCN(c3cc(O[C@H](c4cc(CC)ccc4-n4ccc(C)n4)C(F)(F)F)nc(N)n3)CC2)CN1 [Example 63bp, (S)-ethyl 8-(2-amino-6-((R)-1-(5-ethyl-2-(3-methyl-1H-pyrazol-1-yl)phenyl)-2,2,2-trifluoroethoxy)pyrimidin-4-yl)-2,8-diazaspiro[4.5]decane-3-carboxylate] |  | *** (*** refers to P<0.005) | **** (and refers to P<0.0005) |  | 
CCOC(=O)[C@@H]1CC2(CCN(c3cc(O[C@H](c4ccc(Cl)cc4-c4cccc(S(N)(=O)=O)c4)C(F)(F)F)nc(N)n3)CC2)CN1 [Example 63ch, (S)-ethyl 8-(2-amino-6-((R)-1-(5-chloro-3′-sulfamoyl-[1,1′-biphenyl]-2-yl)-2,2,2-trifluoroethoxy)pyrimidin-4-yl)-2,8-diazaspiro[4.5]decane-3-carboxylate] |  | *** (*** refers to P<0.005) | *** (*** refers to P<0.005) |  | 
CCOC(=O)[C@@H]1CC2(CCN(c3cc(O[C@H](c4ccc(Cl)cc4-c4cccc(S(C)(=O)=O)c4)C(F)(F)F)nc(N)n3)CC2)CN1 [Example 63cj, (S)-ethyl 8-(2-amino-6-((R)-1-(5-chloro-3′-(methylsulfonyl)-[1,1′-biphenyl]-2-yl)-2,2,2-trifluoroethoxy)pyrimidin-4-yl)-2,8-diazaspiro[4.5]decane-3-carboxylate] |  | ** (** refers to P<0.01) | *** (*** refers to P<0.005) |  | 
CCOC(=O)[C@@H]1CC2(CCN(c3cc(O[C@H](c4ccc(-c5ccc6ncccc6c5)cc4)C(F)(F)F)nc(N)n3)CC2)CN1 [Example 63cl, (S)-ethyl 8-(2-amino-6-((R)-2,2,2-trifluoro-1-(4-(quinolin-6-yl)phenyl)ethoxy)pyrimidin-4-yl)-2,8-diazaspiro[4.5]decane-3-carboxylate] |  |  | *** (*** refers to P<0.005) |  | *** (*** refers to P<0.005)
CCOC(=O)c1ccc(-c2ccc(-n3ccc(C)n3)c([C@@H](Oc3cc(N4CCC5(CC4)CN[C@H](C(=O)OCC)C5)nc(N)n3)C(F)(F)F)c2)cc1 [Example 63dc, (S)-ethyl 8-(2-amino-6-((R)-1-(4′-(ethoxycarbonyl)-4-(3-methyl-1H-pyrazol-1-yl)-[1,1′-biphenyl]-3-yl)-2,2,2-trifluoroethoxy)pyrimidin-4-yl)-2,8-diazaspiro[4.5]decane-3-carboxylate] |  | *** (*** refers to P<0.005) | *** (*** refers to P<0.005) |  | 
